Values quoted from earlier work as cited in patent US9078910B2, “Compositions comprising spicamycin derivatives and methods of use thereof” (DARA BioSciences, Inc., priority 2012, dated 2015).

System: neuropathic pain
Conditions: Abdi et al. 2000, Kobierski et al. 2003

CCCCCCCCC/C=C/C=C/C(=O)NCC(=O)N[C@@H]1[C@@H](O)[C@@H](O)[C@@H](Nc2ncnc3[nH]cnc23)O[C@H]1[C@@H](O)CO [KRN5500, 6-[4-deoxy-4-[(2E,4E)-tetradecadienoylglycyl]amino-L-glycero-β-L-mannoheptopyranosyl]amino-9H-purine]
Efficacy in rat models of neuropathic pain: effective
